{"source": "patent US9724380B2", "about": "“Method and compositions for synchronizing time of insemination in gilts” (JBS UNITED ANIMAL HEALTH II LLC, priority 2012, dated 2017)", "assay_type_in_all_cases": "in vivo, swine", "key": {"gilts [1]": {"test_system": "gilts", "experiment": "Example 5: ovulation monitored by transrectal ultrasonography after 100, 200 or 400 mcg triptorelin gel intravaginally at 120 h after MATRIX withdrawal", "settings": "for Percentage ovulated by 48 hours: blood-sampled subpopulation; for % of Sows Ovulating: raw average, PTK 2-07", "experimental": "(§1) All gilts were individually fed MATRIX® as a top-dress for 14 or 15 days at the recommended rate of 15 mg/gilt/day. Gilts were withdrawn from MATRIX® feeding (last top-dress in the morning on Day 0) and allocated to each of the following treatments. Controls were vehicle gel treated (vehicle gel without triptorelin) at 120 (+/−2) hours following MATRIX® withdrawal (last top dress). The other gilts were given 100, 200 or 400 mcg triptorelin as the acetate in a methylcellulose gel formulation 120 (+/−2) hours following MATRIX® withdrawal. The four treatments were: • 1. Vehicle gel (VG): vehicle gel without triptorelin at 120 (+/−2) hours after MATRIX® withdrawal. • 2. TG 100: 100 mcg (2 mL 50 mcg/mL) triptorelin gel at 120 (+/−2) hours after MATRIX® withdrawal. • 3. TG 200: 200 mcg (2 mL 100 mcg/mL) triptorelin gel at 120 (+/−2) hours after MATRIX® withdrawal. • 4. TG 400: 400 mcg (2 mL 200 mcg/mL) triptorelin gel at 120 (+/−2) hours after MATRIX® withdrawal.\n(§2) Triptorelin (pGlu-His-Trp-Ser-Tyr-D-Trp-Leu-Arg-Pro-Gly-NH2) was supplied in the acetate form, from Bachem, Torrance, Calif. (Item H-4075 CGMP grade). Triptorelin gel (100-400 mcg/2 mL dose) was formulated by Argenta (Auckland, NZ) in a gel composed of Methocel Premium A4000 (Dow Chemical), citrate buffer (pH 5.5), NaCl, methionine, and methyl and propyl parabens. Fifty-four milliliters of triptorelin gel (100 mcg triptorelin acetate/mL) was packaged in Amber Borosilicate Glass Serum Vials (610206-50) with a Gray Butyl Pharmaceutical Serum Vial Stopper (73828A-SS) with a Standard Aluminum Seal (SAS20NAT). […] MATRIX® was supplied as the US commercially available form.\nOvulation was monitored twice on Day 5 (8 hours and 16 hours post-treatment) and every 8 hours on Day 6 and Day 7 or until ovulation was confirmed or 176 hours following last MATRIX® feeding. The ovulatory status of all gilts was monitored by transrectal ultrasonography. An Aloka 500 ultrasound machine is used for this purpose, with a 7.5 MHz linear array transducer attached to a fixed-angle PVC stabilizing rod to facilitate insertion into the rectum. The transducer and PVC rod are coated with a gynecological lubricant and gently inserted into the rectum until the ovaries can be visualized, one at a time. The diameters of the three largest follicles were recorded (to the nearest 0.1 mm) at each scanning. A gilt was declared to have ovulated when the number of large follicles (≧6.5 mm) fell to less than 3.\n(§3) A single 2 mL dose of triptorelin gel or vehicle gel was deposited within approximately 1-2 cm posterior to the cervix with a catheter similar to those used for artificial insemination. The dose was delivered using a standard multi-dose applicator attached to the catheter. A new disposable sheath, which surrounds the catheter, was used for each gilt."}, "serum LH": {"test_system": "serum LH", "experiment": "Example 5: serum LH surge after triptorelin gel (jugular catheter subpopulation)", "experimental": "as §1\nA catheter was inserted non-surgically into the jugular vein (Kraeling et al. 1982) of a subpopulation of gilts in each treatment group (vehicle gel, n=8; 100 mcg triptorelin, n=6; 200 mcg triptorelin, n=7 and 400 mcg triptorelin, n=6). Ten mL blood samples were collected every 15 minutes for one hour prior to treatment, immediately following treatment (0) and at 0.5, 1, 2, 4, 6, 12, 18, 24, 36 and 48 hours after treatment. Blood samples were maintained at 4° C. until centrifuged at 800×g for 15 minutes within 12 hours of collection. The resulting serum was stored frozen until assayed for LH using validated procedures for pig serum (Kesner et al., 1987 and Kraeling et al., 1982). Onset, duration, and magnitude of the LH surge were analyzed. The LH data were analyzed with the General Linear Models procedure of SAS. Differences between treatments were tested on least squares means estimates using the T test at P<0.05. Onset of the LH surge is when serum LH concentration is greater than or equal to two standard deviations of the mean of the pre-treatment serum LH concentrations. Duration of the LH surge is the period between onset and when serum LH concentration is again less than or equal to two standard deviations of the mean of the pre-treatment serum LH concentrations. Magnitude of the LH surge is the maximum serum LH concentration reached during the LH surge.\nas §3"}, "gilts [2]": {"test_system": "gilts", "experiment": "Example 5: estrus observation after triptorelin gel dose groups", "settings": "raw average, PTK 2-07", "experimental": "as §1, §2\nFor post-treatment estrus detection, gilts were housed in individual pens. Boars were housed in separate rooms, and/or at least 12 m away and downwind. To elicit signs of estrus, a mature boar was walked slowly in the alley in front of the gilts' crates, exposing each test gilt to visual, auditory and olfactory signals from the boar for up to 5 minutes. In keeping with standard practice at commercial farms, while the boar was near the front of the gilt's crate, estrus was tested by an experienced person applying back pressure to the midsection of the gilt combined with side rubbing. Estrus was confirmed when a gilt stood rigidly to the back pressure, with no vocalization and with some indication of an ear reflex. Gilts were not exposed to boars during the first three days after withdrawal of MATRIX® (Day 0 to Day 2). Estrus detection was performed daily on all gilts from Day 3 to Day 7.\nA single 2 mL dose of triptorelin gel or vehicle gel was deposited within approximately 1-2 cm posterior to the cervix with a catheter similar to those used for artificial insemination. The dose was delivered using a standard multi-dose applicator attached to the catheter. […]"}, "[3]": {"settings": "200 mcg T, LS mean (1 gilt with surge)"}, "[4]": {"settings": "200 mcg T, relative to time of triptorelin gel treatment, LS mean (1 gilt with surge)"}}}
{"smiles": "CC(C)C[C@H](NC(=O)[C@@H](Cc1c[nH]c2ccccc12)NC(=O)[C@H](Cc1ccc(O)cc1)NC(=O)[C@H](CO)NC(=O)[C@H](Cc1c[nH]c2ccccc12)NC(=O)[C@H](Cc1c[nH]cn1)NC(=O)[C@@H]1CCC(=O)N1)C(=O)N[C@@H](CCCNC(=N)N)C(=O)N1CCC[C@H]1C(=O)NCC(N)=O", "note": "[T, pGlu-His-Trp-Ser-Tyr-D-Trp-Leu-Arg-Pro-Gly-NH2]", "values": [{"measurement": "Percentage ovulated by 48 hours", "setting": "gilts [1]; 100 mcg T (n = 6)", "value": 100, "unit": "%"}, {"measurement": "% of Sows Ovulating", "setting": "gilts [1]; 100 mcg T, 128 h post-MATRIX (8 h post-T)", "value": 0.0, "unit": "%"}, {"measurement": "% of Sows Ovulating", "setting": "gilts [1]; 100 mcg T, 136 h post-MATRIX (16 h post-T)", "value": 5.0, "unit": "%"}, {"measurement": "% of Sows Ovulating", "setting": "gilts [1]; 100 mcg T, 144 h post-MATRIX (24 h post-T)", "value": 20.0, "unit": "%"}, {"measurement": "% of Sows Ovulating", "setting": "gilts [1]; 100 mcg T, 152 h post-MATRIX (32 h post-T)", "value": 30.0, "unit": "%"}, {"measurement": "% of Sows Ovulating", "setting": "gilts [1]; 100 mcg T, 160 h post-MATRIX (40 h post-T)", "value": 60.0, "unit": "%"}, {"measurement": "% of Sows Ovulating", "setting": "gilts [1]; 100 mcg T, 168 h post-MATRIX (48 h post-T)", "value": 95.0, "unit": "%"}, {"measurement": "% of Sows Ovulating", "setting": "gilts [1]; 100 mcg T, 176 h post-MATRIX (56 h post-T)", "value": 100.0, "unit": "%"}, {"measurement": "Percentage ovulated by 48 hours", "setting": "gilts [1]; 200 mcg T (n = 7)", "value": 100, "unit": "%"}, {"measurement": "% of Sows Ovulating", "setting": "gilts [1]; 200 mcg T, 128 h post-MATRIX (8 h post-T)", "value": 0.0, "unit": "%"}, {"measurement": "% of Sows Ovulating", "setting": "gilts [1]; 200 mcg T, 136 h post-MATRIX (16 h post-T)", "value": 0.0, "unit": "%"}, {"measurement": "Percentage ovulated by 48 hours", "setting": "gilts [1]; 400 mcg T (n = 6)", "value": 100, "unit": "%"}, {"measurement": "% of Sows Ovulating", "setting": "gilts [1]; 400 mcg T, 128 h post-MATRIX (8 h post-T)", "value": 4.5, "unit": "%"}, {"measurement": "% of Sows Ovulating", "setting": "gilts [1]; 400 mcg T, 136 h post-MATRIX (16 h post-T)", "value": 9.1, "unit": "%"}, {"measurement": "% of Sows Ovulating", "setting": "gilts [1]; 400 mcg T, 168 h post-MATRIX (48 h post-T)", "value": 100.0, "unit": "%"}, {"measurement": "% of Sows Ovulating", "setting": "gilts [1]; 400 mcg T, 176 h post-MATRIX (56 h post-T)", "value": 100.0, "unit": "%"}, {"measurement": "Gilts, which displayed a LH surge (number)", "setting": "serum LH; 100 mcg T (n = 6)", "value": 4}, {"measurement": "Magnitude of LH surge (maximum serum LH concentration)", "setting": "serum LH; 100 mcg T, LS mean ± SE", "value": "3.94 ± 1.22"}, {"measurement": "Onset of LH surge", "setting": "serum LH; 100 mcg T, relative to time of triptorelin gel treatment, LS mean ± SE", "value": "4 ± 3"}, {"measurement": "Gilts, which displayed a LH surge (number)", "setting": "serum LH; 200 mcg T (n = 7)", "value": 1}, {"measurement": "Duration of LH surge", "setting": "serum LH; [3]", "value": 18}, {"measurement": "Magnitude of LH surge (maximum serum LH concentration)", "setting": "serum LH; [3]", "value": 8.98}, {"measurement": "Onset of LH surge", "setting": "serum LH; [4]", "value": 0.5}, {"measurement": "Time of maximum LH conc.", "setting": "serum LH; [4]", "value": 4}, {"measurement": "Gilts, which displayed a LH surge (number)", "setting": "serum LH; 400 mcg T (n = 6)", "value": 5}, {"measurement": "Magnitude of LH surge (maximum serum LH concentration)", "setting": "serum LH; 400 mcg T, LS mean ± SE", "value": "11.65 ± 12.35"}, {"measurement": "Onset of LH surge", "setting": "serum LH; 400 mcg T, relative to time of triptorelin gel treatment, LS mean ± SE", "value": "4 ± 4"}, {"measurement": "Estrous Expression (%)", "setting": "gilts [2]; 100 mcg T at 120 h post-MATRIX", "value": 75.0, "unit": "%"}, {"measurement": "Estrous Expression (%)", "setting": "gilts [2]; 200 mcg T at 120 h post-MATRIX", "value": 81.0, "unit": "%"}]}
